Test results as given in patent publication US20050234076A1, “Triazolopyrimidines” (priority 2002, published 2005).

Test system: Botrytis cinerea
Assay: Botrytis Test (bean)/protective
Assay type: in vivo
Conditions: 48 h, bean plants, protective spray, evaluation 2 days after inoculation, 100% = no infection, read-out: Efficacy in %
Protocol: Botrytis Test (bean)/protective
Solvents: 24.5 parts by weight of acetone • 24.5 parts by of dimethylacetamide
Emulsifier: 1.0 part by weight of alkylaryl polyglycol ether
To produce a suitable preparation of active compound, 1 part by weight of active compound is mixed with the stated amounts of solvent and emulsifier, and the concentrate is diluted with water to the desired concentration.
To test for protective activity, young plants are sprayed with the preparation of active compound at the stated application rate. After the spray coating has dried on, 2 small pieces of agar colonized by Botrytis cinerea are placed onto each leaf. The inoculated plants are placed in a dark chamber at about 20° C. and 100% relative atmospheric humidity.
2 days after the inoculation the size of the infected areas on the leaves is evaluated. 0% means an efficacy which corresponds to that of the control, whereas an efficacy of 100% means that no infection is observed.

Point of comparison: Fc1cccc(F)c1-c1c(Cl)nc2ncnn2c1N1CCCCO1 [drawing 85], pest or weed control at 500 g/ha 100%. Against it:
- Fc1cc(F)c(-c2c(Cl)nc3ncnn3c2N2CC=CCO2)c(F)c1 — the same, 100%
- Fc1cc(F)c(-c2c(Cl)nc3ncnn3c2N2Cc3ccccc3CO2)c(F)c1 [drawing 72] — the same, 100%
- Fc1cc(F)c(-c2c(Cl)nc3ncnn3c2N2CCCCO2)c(F)c1 [drawing 73] — the same, 100%
- Fc1ccc(-c2c(Cl)nc3ncnn3c2N2CCCCO2)c(Cl)c1 [drawing 74] — the same, 100%
- Fc1ccc(-c2c(Cl)nc3ncnn3c2N2CCCCO2)c(F)c1 [drawing 75] — the same, 100%
- Fc1cccc(Cl)c1-c1c(Cl)nc2ncnn2c1N1CCCCN1 [drawing 76] — the same, 100%
- Fc1cc(F)c(-c2c(Cl)nc3ncnn3c2N2CCCCN2)c(F)c1 [drawing 77] — the same, 100%
- Fc1cc(F)c(-c2c(Cl)nc3ncnn3c2N2OC3CCC2C3)c(C(F)(F)F)c1 (stereo not drawn) [drawing 78] — the same, 100%
- CC1C=CCN(c2c(-c3c(F)cc(F)cc3F)c(Cl)nc3ncnn23)O1 (stereo not drawn) [drawing 80] — lower, 93%
- Fc1cc(F)c(-c2c(Cl)nc3ncnn3c2N2OC3CCC2C3)c(F)c1 (stereo not drawn) [drawing 81] — lower, 98%
- CC1CCCON1c1c(-c2c(F)cc(F)cc2F)c(Cl)nc2ncnn12 (stereo not drawn) [drawing 82] — the same, 100%
- CC1CCON1c1c(-c2c(F)cc(F)cc2F)c(Cl)nc2ncnn12 (stereo not drawn) [drawing 83] — the same, 100%
- Clc1ccccc1-c1c(Cl)nc2ncnn2c1N1OC2CCC1C2 (stereo not drawn) [drawing 84] — lower, 93%
- Fc1cccc(Cl)c1-c1c(Cl)nc2ncnn2c1N1OC2CCC1C2 (stereo not drawn) [drawing 86] — the same, 100%
- CC1CCON1c1c(-c2c(F)cccc2Cl)c(Cl)nc2ncnn12 (stereo not drawn) [drawing 87] — the same, 100%
- Fc1ccc(-c2c(Cl)nc3ncnn3c2N2OC3CCC2C3)c(F)c1 (stereo not drawn) [drawing 88] — lower, 99%
- CC1CCCON1c1c(-c2ccccc2Cl)c(Cl)nc2ncnn12 (stereo not drawn) [drawing 89] — lower, 99%
- Fc1ccc(-c2c(Cl)nc3ncnn3c2N2OC3CCC2C3)c(Cl)c1 (stereo not drawn) [drawing 90] — the same, 100%
- Fc1cc(F)c(-c2c(Cl)nc3ncnn3c2N2CCC=N2)c(F)c1 [drawing 91] — the same, 100%
- Clc1cccc(Cl)c1-c1c(Cl)nc2ncnn2c1N1CCCCN1 [drawing 92] — lower, 99%
- Fc1cc(F)c(-c2c(Cl)nc3ncnn3c2N2NC3CCC2C3)c(F)c1 (stereo not drawn) [drawing 93] — lower, 96%
- Fc1cccc(Cl)c1-c1c(Cl)nc2ncnn2c1N1NC2CCC1C2 (stereo not drawn) [drawing 94] — the same, 100%
- Fc1cccc(F)c1-c1c(Cl)nc2ncnn2c1N1CCCCN1 [drawing 95] — lower, 95%
- Fc1cc(F)c(-c2c(Cl)nc3ncnn3c2N2CCCCN2)c(C(F)(F)F)c1 [drawing 96] — the same, 100%
- Clc1ccc(-c2c(Cl)nc3ncnn3c2N2CCCCN2)c(Cl)c1 [drawing 97] — lower, 95%
- Fc1cc(C(F)(F)F)cc(F)c1-c1c(Cl)nc2ncnn2c1N1CCCCN1 [drawing 98] — lower, 95%
- Fc1cc(F)c(-c2c(Br)nc3ncnn3c2N2CCCCN2)c(F)c1 [drawing 99] — the same, 100%

Test system: Venturia inaequalis
Assay: Venturia Test (apple)/protective
Assay type: in vivo
Conditions: 240 h, apple plants, protective spray, evaluation 10 days after inoculation, 100% = no infection, read-out: Efficacy in %
Protocol: Venturia Test (apple)/protective Solvents: 24.5 parts by weight of acetone • 24.5 parts by weight of dimethylacetamide Emulsifier: 1.0 parts by weight alkylaryl polyglycol ether To produce a suitable preparation of active compound, 1 part by weight of active compound is mixed with the stated amounts of solvent and emulsifier, and the concentrate is diluted with water to the desired concentration. To test for protective activity, young plants are sprayed with the preparation of active compound at the stated application rate. […] The plants are then placed in a greenhouse at about 21° C. and a relative atmospheric humidity of about 90%.

Point of comparison: CC1CCCON1c1c(-c2ccccc2Cl)c(Cl)nc2ncnn12 (stereo not drawn) [drawing 61], pest or weed control at 100 g/ha 99%. Against it:
- Fc1cc(F)c(-c2c(Cl)nc3ncnn3c2N2Cc3ccccc3CO2)c(F)c1 [drawing 45] — higher, 100%
- Fc1cc(F)c(-c2c(Cl)nc3ncnn3c2N2CCCCO2)c(F)c1 [drawing 46] — higher, 100%
- Fc1ccc(-c2c(Cl)nc3ncnn3c2N2CCCCO2)c(Cl)c1 [drawing 47] — higher, 100%
- Fc1ccc(-c2c(Cl)nc3ncnn3c2N2CCCCO2)c(F)c1 [drawing 48] — lower, 96%
- Fc1cccc(Cl)c1-c1c(Cl)nc2ncnn2c1N1CCCCN1 [drawing 49] — higher, 100%
- CC1C=CCN(c2c(-c3c(F)cc(F)cc3F)c(Cl)nc3ncnn23)O1 (stereo not drawn) [drawing 50] — higher, 100%
- Fc1cc(F)c(-c2c(Cl)nc3ncnn3c2N2OC3CCC2C3)c(F)c1 (stereo not drawn) [drawing 51] — higher, 100%
- Fc1cc(F)c(-c2c(Cl)nc3ncnn3c2N2OC3CCC2C3)c(C(F)(F)F)c1 (stereo not drawn) [drawing 53] — higher, 100%
- CC1CCCON1c1c(-c2c(F)cc(F)cc2F)c(Cl)nc2ncnn12 (stereo not drawn) [drawing 54] — higher, 100%
- CC1CCON1c1c(-c2c(F)cc(F)cc2F)c(Cl)nc2ncnn12 (stereo not drawn) [drawing 55] — higher, 100%
- Clc1ccccc1-c1c(Cl)nc2ncnn2c1N1OC2CCC1C2 (stereo not drawn) [drawing 56] — the same, 99%
- Fc1cccc(F)c1-c1c(Cl)nc2ncnn2c1N1CCCCO1 [drawing 57] — higher, 100%
- Fc1cccc(Cl)c1-c1c(Cl)nc2ncnn2c1N1OC2CCC1C2 (stereo not drawn) [drawing 58] — higher, 100%
- CC1CCON1c1c(-c2c(F)cccc2Cl)c(Cl)nc2ncnn12 (stereo not drawn) [drawing 59] — higher, 100%
- Fc1ccc(-c2c(Cl)nc3ncnn3c2N2OC3CCC2C3)c(F)c1 (stereo not drawn) [drawing 60] — higher, 100%
- Fc1ccc(-c2c(Cl)nc3ncnn3c2N2OC3CCC2C3)c(Cl)c1 (stereo not drawn) [drawing 62] — higher, 100%
- Fc1cc(F)c(-c2c(Cl)nc3ncnn3c2N2CCC=N2)c(F)c1 [drawing 63] — lower, 96%
- Clc1cccc(Cl)c1-c1c(Cl)nc2ncnn2c1N1CCCCN1 [drawing 64] — the same, 99%

Test system: not listed separately
Assay: physchem
Conditions: not given

Point of comparison: Fc1ccc(-c2c(Cl)nc3ncnn3c2N2OC3CCC2C3)c(Cl)c1 (stereo not drawn) [Example 44], chromatographic logP 2.89. Against it:
- CC1CCON1c1c(-c2c(F)cc(F)cc2F)c(Cl)nc2ncnn12 (stereo not drawn) [Example 1, 5-chloro-6-(2,4,6-trifluorophenyl)-7-(3-methyl-2-isoxazolidinyl)[1,2,4]triazolo[1,5-a]pyrimidine] — within 0.2 log units, 2.76
- Fc1cc(F)c(-c2c(Cl)nc3ncnn3c2N2Cc3ccccc3CO2)c(F)c1 [Example 5] — higher, 3.53
- Fc1cc(F)c(-c2c(Cl)nc3ncnn3c2N2CCCCO2)c(F)c1 [Example 6] — within 0.2 log units, 2.92
- Fc1ccc(-c2c(Cl)nc3ncnn3c2N2CCCCO2)c(Cl)c1 [Example 8] — higher, 3.11
- Fc1ccc(-c2c(Cl)nc3ncnn3c2N2CCCCO2)c(F)c1 [Example 9] — within 0.2 log units, 2.84
- Fc1cc(F)c(-c2c(Cl)nc3ncnn3c2N2CCCCN2)c(F)c1 [Example 10] — lower, 2.68
- Fc1cc(F)c(-c2c(Cl)nc3ncnn3c2N2CCC=N2)c(F)c1 [Example 11] — lower, 2.34
- Fc1cccc(Cl)c1-c1c(Cl)nc2ncnn2c1N1CCCCN1 [Example 12] — lower, 2.67
- Fc1cc(F)c(-c2c(Cl)nc3ncnn3c2N2OC3CCC2C3)c(F)c1 (stereo not drawn) [Example 18] — within 0.2 log units, 2.75
- Clc1cccc(Cl)c1-c1c(Cl)nc2ncnn2c1N1CCCCN1 [Example 21] — within 0.2 log units, 2.88
- Fc1cc(F)c(-c2c(Br)nc3ncnn3c2N2CCCCN2)c(F)c1 [Example 24] — within 0.2 log units, 2.73
- Fc1cc(F)c(-c2c(Cl)nc3ncnn3c2N2NC3CCC2C3)c(F)c1 (stereo not drawn) [Example 27] — lower, 2.65
- Fc1cccc(Cl)c1-c1c(Cl)nc2ncnn2c1N1NC2CCC1C2 (stereo not drawn) [Example 28] — lower, 2.59
- Fc1cccc(F)c1-c1c(Cl)nc2ncnn2c1N1CCCCO1 [Example 31] — lower, 2.68
- Clc1ccccc1-c1c(Cl)nc2ncnn2c1N1OC2CCC1C2 (stereo not drawn) [Example 33] — lower, 2.69
- Fc1cccc(Cl)c1-c1c(Cl)nc2ncnn2c1N1OC2CCC1C2 (stereo not drawn) [Example 34] — within 0.2 log units, 2.74
- CC1CCCON1c1c(-c2c(F)cc(F)cc2F)c(Cl)nc2ncnn12 (stereo not drawn) [Example 35] — higher, 3.23
- CC1CCCON1c1c(-c2ccccc2Cl)c(Cl)nc2ncnn12 (stereo not drawn) [Example 41] — higher, 3.17
- CC1CCON1c1c(-c2c(F)cccc2Cl)c(Cl)nc2ncnn12 (stereo not drawn) [Example 42] — within 0.2 log units, 2.74
- Fc1ccc(-c2c(Cl)nc3ncnn3c2N2OC3CCC2C3)c(F)c1 (stereo not drawn) [Example 43] — lower, 2.67
- Fc1cc(F)c(-c2c(Cl)nc3ncnn3c2N2OC3CCC2C3)c(C(F)(F)F)c1 (stereo not drawn) [Example 46] — higher, 3.1
- CC1C=CCN(c2c(-c3c(F)cc(F)cc3F)c(Cl)nc3ncnn23)O1 (stereo not drawn) [Example 58] — higher, 3.12
- Fc1cccc(F)c1-c1c(Cl)nc2ncnn2c1N1CCCCN1 [Example 63] — lower, 2.47
- Fc1cc(F)c(-c2c(Cl)nc3ncnn3c2N2CCCCN2)c(C(F)(F)F)c1 [Example 67] — within 0.2 log units, 3.06
- Fc1cc(C(F)(F)F)cc(F)c1-c1c(Cl)nc2ncnn2c1N1CCCCN1 [Example 68] — higher, 3.26
- Clc1ccc(-c2c(Cl)nc3ncnn3c2N2CCCCN2)c(Cl)c1 [Example 69] — higher, 3.22
- CCOC(=O)N1OCCC1C (stereo not drawn) [N-ethoxycarbonyl-3-methylisoxazolidine] — lower, 1.22
